The subject of data set [1] is patients with cancer. The experiment in a line: Completed Phase Ib combination studies of pertuzumab, LVEF. The note with it: 2/35 patients. The data set is classed as in vivo, human. An excerpt:
Grade 3-4 adverse events have been less frequently reported, with the more frequent events being Grade 3 diarrhea (5%), Grade 3 vomiting (2%), and Grade 3 nausea (<1%). Asymptomatic decreases in LVEF have been reported as adverse events in 14% of patients and were mainly (−70%) Grade 1 events.

For data set [2], the system named is patients with cancer. The experiment in a line: Pooled Phase II trials of single-agent pertuzumab, safety. Type of data set: in vivo, human.
Data set [3] has as its system patients with cancer. Description: Pertuzumab across all studies, symptomatic cardiac failure. The data set is classed as in vivo, human. The note with it: 4 of 842 patients across all studies. An excerpt:
Two of these patients had MBC and had received prior anthracyclines and two patients had ovarian cancer patients, one of whom had cardiac risk factors (hypertension/hyperlipidemia).

Data set [4] in a line: Pertuzumab PK studies (Phase Ia and II). The data set is classed as in vivo, human. The text has this:
A two-compartment model adequately described the concentration-time data with a terminal half-life of approximately 17 days for a typical patient.
Population PK modeling of data from Phase Ia and II studies supports the continued use of fixed non-weight based dosing in female patients.

Data set [5] concerns patients with HER2-positive MBC.
Text: Patients with confirmed HER2-positive MBC whose disease had progressed on multiple lines of therapy, including HER2-directed therapy, were eligible.
Preliminary data in 112 evaluable patients are also available from the Phase II study.
The test system is the same in data set [6]. The source holds these as a separate data set.
The next data set relates to patients with MBC. The note with it: single agent, cited from earlier work.
The mark [7] stands for this setting: pooled Phase II single agent (n=353), generally Grade 1-2.
[8] abbreviates: subgroup with at least 6 months of follow-up or discontinued (n=76).

Data on three compounds can be found in US20140044709A1, “TREATMENT OF HER2-POSITIVE CANCER WITH PACLITAXEL AND TRASTUZUMAB-MCC-DM1” (priority 2010, published 2014).

Where two headings read alike, the source gives them in different places.

For the compound “pertuzumab: humanized monoclonal antibody that binds to extracellular domain II of HER2 and blocks its ability to dimerize with other HER receptors”, the “LVEF declines of ≧10% to <50%” value in the data set with patients with cancer [1] was determined as 6%. Further, in the data set on patients with cancer [2] (% of patients), the “asymptomatic decreases in LVEF reported as adverse events” value is 14%. In addition, the “LVEF declines of ≧10% to <50%” value in the data set on patients with cancer [2] (completed Phase II single-agent studies, 21/302 patients) is on record as 7%. Further, in the data set on patients with cancer [2] (pooled Phase II single agent), the “Grade 3 diarrhea” value amounted to 5%, the “Grade 3 nausea” value was less than 1% and the “Grade 3 vomiting” value came out at 2%. In the data set with patients with cancer [2] (setting [7]), this compound registered an abdominal pain of 24%, a diarrhea of 58%, a fatigue of 32% and a nausea of 31%. In the data set with patients with cancer [2] (setting [7]), this compound returned a rash of 17% and a vomiting of 22%. The tolerability result in the data set with patients with cancer [2] (single agent, five Phase II studies) is “well tolerated”. Also, in the data set on patients with cancer [3], the “symptomatic cardiac failure events” value is reported as 0.5%. For the same compound, the “attaining steady-state trough and peak concentrations” value in data set [4] (loading dose 840 mg followed by 420 mg every 3 weeks) is “by the second cycle”. In addition, the terminal half-life result in data set [4] (two-compartment model, typical patient) is listed as “approximately 17 days”.

Consider T-DM1, for which the “objective responses confirmed by follow-up imaging” value in data set [5] (107 efficacy-evaluable patients, 29 responses) stood at 27.1%. The “objective responses (CRs and PRs)” value in data set [5] (107 efficacy-evaluable patients, 42 responses) is 39.3%. The compound further showed a response rate in data set [5] (setting [8]) of 43.4%. The “response rate confirmed by follow-up imaging” value in data set [5] (setting [8]) is 38.2%. For the same compound, the responses result in data set [6] (1.2 mg/kg weekly (n=3)) is recorded as “three”; in data set [6] (1.6 mg/kg weekly (n=3)), “two”; in data set [6] (2.0 mg/kg weekly (n=3)) it was “two”. In addition, the “ORR in patients with measurable disease and confirmed HER2 status by central review” value in data set [6] (every 3-week schedule, 5/11) is 46%; in data set [6] (weekly schedule, 7/15), 47%. Besides, the “6-month clinical benefit rate (CR+PR+SD>6 months)” value in data set [6] (every 3-week schedule, 13/24) came to 54%; in data set [6] (weekly schedule, 18/28) it was 64%. For the same compound, the “objective response rate (ORR)” value in data set [6] (every-3-week schedule, 24 patients) was determined as 21%; in data set [6] (weekly schedule, 28 patients), 54%. Also, the “responses confirmed according to RECIST” value is on record as “five” in data set [6] (every-3-week schedule, of six responses) and 13 in data set [6] (weekly schedule, of 15 responses).

As to `CC(=O)O[C@H]1C(=O)[C@@]2(C)[C@H]([C@H](OC(=O)c3ccccc3)[C@]3(O)C[C@H](OC(=O)[C@H](O)[C@@H](NC(=O)c4ccccc4)c4ccccc4)C(C)=C1C3(C)C)[C@]1(OC(C)=O)CO[C@@H]1C[C@@H]2O` (relative stereo) [paclitaxel, β-(benzoylamino)-α-hydroxy-,6,12b-bis (acetyloxy)-12-(benzoyloxy)-2a,3,4,4a,5,6,9,10,11,12,12a,12b-dodecahydro-4,11-dihydroxy-4a,8,13,13-tetramethyl-5-oxo-7,11-methano-1H-cyclodeca(3,4)benz(1,2-b) oxet-9-ylester,(2aR-(2a-α,4-β,4a-β,6-β,9-α (α-R*,β-S*),11-α,12-α,12a-α,2b-α))-benzenepropanoic acid], the figures for the response rates with patients with MBC (first-line treatment of MBC) and with patients with MBC (second-line treatment of MBC) were 29-63% and 21-56%, respectively.
